Among the targets are Carbonic anhydrase 9 (Homo sapiens, UniProt Q16790); Carbonic anhydrase 1 (Homo sapiens, UniProt P00915); Carbonic anhydrase 2 (Homo sapiens, UniProt P00918); Carbonic anhydrase 12 (Homo sapiens, UniProt O43570).

Carbonic anhydrase 12, sequence (O43570 whole entry): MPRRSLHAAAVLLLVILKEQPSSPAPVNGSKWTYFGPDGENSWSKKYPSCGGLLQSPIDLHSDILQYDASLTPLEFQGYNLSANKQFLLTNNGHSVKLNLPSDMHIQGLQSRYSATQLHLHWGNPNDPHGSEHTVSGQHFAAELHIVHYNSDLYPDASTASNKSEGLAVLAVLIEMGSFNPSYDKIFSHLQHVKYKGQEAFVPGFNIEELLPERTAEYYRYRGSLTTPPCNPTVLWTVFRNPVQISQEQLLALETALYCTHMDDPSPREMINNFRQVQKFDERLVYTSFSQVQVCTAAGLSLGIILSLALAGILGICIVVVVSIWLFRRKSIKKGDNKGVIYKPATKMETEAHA
Carbonic anhydrase 1, sequence (P00915 whole entry): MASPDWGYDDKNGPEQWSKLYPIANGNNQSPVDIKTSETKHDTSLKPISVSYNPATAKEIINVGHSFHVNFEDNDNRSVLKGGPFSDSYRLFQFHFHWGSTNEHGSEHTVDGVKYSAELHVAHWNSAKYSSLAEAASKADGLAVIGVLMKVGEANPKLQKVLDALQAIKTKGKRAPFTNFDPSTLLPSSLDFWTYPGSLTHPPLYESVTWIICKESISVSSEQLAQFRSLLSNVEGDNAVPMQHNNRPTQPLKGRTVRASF
Description for Carbonic anhydrase 12: Inhibition of human recombinant carbonic anhydrase 12 assessed as inhibition constant incubated for 15 mins by stopped-flow technique
Description for Carbonic anhydrase 2: Inhibition of human recombinant carbonic anhydrase 2 assessed as inhibition constant incubated for 15 mins by stopped-flow technique
Description for Carbonic anhydrase 9: Inhibition of human recombinant carbonic anhydrase 9 assessed as inhibition constant incubated for 15 mins by stopped-flow technique

Regarding `O=C(O)Cc1nnn[nH]1`, the inhibition constant Ki on Carbonic anhydrase 9 turned out to be 7.68 µM; on Carbonic anhydrase 1, 4.21 µM; at Carbonic anhydrase 2, 5.97 µM; on Carbonic anhydrase 12, 8.21 µM.

In general, Ki refers to a dissociation constant, usually derived from enzyme kinetics or from competition with a known ligand. Low values mean higher affinity, high ones lower affinity.

For the origin of these results see ChEMBL document CHEMBL6096713, “Tetrazole Is a Novel Zinc Binder Chemotype for Carbonic Anhydrase Inhibition” (ACS Med Chem Lett, 2025).
